The results in this text go back to patent US9932354B2, “Imidazo-oxadiazole and imidazo-thiadiazole derivatives” (Ares Trading S.A., priority 2012, dated 2018).

What is called IC50 is the midpoint of a concentration-inhibition curve.

A value given as a limit tells only on which side of the number the result lay.

The test system of assay [1] is Amyloid-β peptide release (Aβ42), HEK cells overexpressing APP (HEK-APP). The assay is described as follows: Amyloid-β peptide release (Aβ42) assay, AlphaLISA on supernatant of HEK-APP cells. Format: cell-based. The note with it: Homo sapiens, HEK293, 24 h incubation with compound, read-out: Ab42 IC50 Ranges. In a few lines:
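HEK-APP cells treated with compounds for 24 h at 37 °C, 5% CO2. Supernatant Aβ42 or total Aβ measured by AlphaLISA after 4.5 h with antibody beads (6E10 acceptor beads for total). IC50 values derived.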
A general note: Bead proximity is the source of the signal in Alpha formats.

The subject of assay [2] is Amyloid-β peptide release (AβTotal), HEK cells overexpressing APP (HEK-APP). The assay is described as follows: Amyloid-β peptide release (AβTotal) assay, AlphaLISA on supernatant of HEK-APP cells. The format is cell-based. Conditions: ratio Abtot vs Ab42, HEK-APP cells, 24 h.

On to `Cc1ncc2oc(-c3ccc(NC(=O)Cc4cccc(F)c4F)cn3)nn12` [Example 79, 2-(2,3-Difluoro-phenyl)-N-[6-(5-methyl-imidazo[5,1-b][1,2,4]oxadiazol-2-yl)-pyridin-3-yl]-acetamide], for which the IC50 in assay [1] fell in the range of 1 to 2.2 µM. In addition, the Abtot/Ab42 selectivity ranges result in assay [2] is recorded as “c (c: 50 fold > selectivity ≥ 10 fold)”.
For the molecule `Cc1ncc2oc(-c3ccc(NC(=O)C(c4ccccc4)c4ccccc4)cn3)nn12` [Example 80, N-[6-(5-Methyl-imidazo[5,1-b][1,2,4]oxadiazol-2-yl)-pyridin-3-yl]-2,2-diphenyl-acetamide], in assay [1], the IC50 was in the range of 0.5 to 1 µM. Besides, in assay [2], the Abtot/Ab42 selectivity ranges result is listed as “c (c: 50 fold > selectivity ≥ 10 fold)”.
With `Cc1ncc2oc(-c3ccc(NC(=O)Cc4ccccc4OC(F)(F)F)cn3)nn12` [Example 81, N-[6-(5-Methyl-imidazo[5,1-b][1,2,4]oxadiazol-2-yl)-pyridin-3-yl]-2-(2-trifluoromethoxy-phenyl)-acetamide], the IC50 in assay [1] is 1 to 2.2 µM. In addition, the Abtot/Ab42 selectivity ranges result in assay [2] is “c (c: 50 fold > selectivity ≥ 10 fold)”.
For the molecule `Cc1ncc2oc(-c3ccc(NC(=O)Cc4ccc(Cl)cc4Cl)cn3)nn12` [Example 82], the half-inhibitory concentration (IC50) in assay [1] is 1 to 2.2 µM. In addition, the Abtot/Ab42 selectivity ranges entry in assay [2] is recorded as “c (c: 50 fold > selectivity ≥ 10 fold)”.
On to `Cc1ncc2oc(-c3ccc(NC(=O)Cc4ccccc4C(F)(F)F)cn3)nn12` [Example 83, N-[6-(5-Methyl-imidazo[5,1-b][1,2,4]oxadiazol-2-yl)-pyridin-3-yl]-2-(2-trifluoromethyl-phenyl)-acetamide], for which the IC50 in assay [1] is 1 to 2.2 µM. For the same molecule, the Abtot/Ab42 selectivity ranges result in assay [2] is on record as “c (c: 50 fold > selectivity ≥ 10 fold)”.
The like results for `Cc1ncc2oc(-c3ccc(NC(=O)C4(c5ccc(Cl)cc5)CCC4)cn3)nn12` [Example 84, 1-(4-Chloro-phenyl)-cyclobutanecarboxylic acid [6-(5-methyl-imidazo[5,1-b][1,2,4]oxadiazol-2-yl)-pyridin-3-yl]-amide] were, in that order, 0.5 to 1 µM and “c (c: 50 fold > selectivity ≥ 10 fold)”.
The like results for `CCC(C(=O)Nc1ccc(-c2nn3c(C)ncc3o2)nc1)c1ccccc1` (stereo not shown) [Example 85, N-[6-(5-Methyl-imidazo[5,1-b][1,2,4]oxadiazol-2-yl)-pyridin-3-yl]-2-phenyl-butyramide] were, in that order, 1 to 2.2 µM and “c (c: 50 fold > selectivity ≥ 10 fold)”.
For `Cc1ncc2oc(-c3ccc(C(=O)NCc4cccc5ccccc45)cc3)nn12` [Example 86, 4-(5-methylimidazo[5,1-b][1,3,4]oxadiazol-2-yl)-N-(naphthalen-1-ylmethyl)benzamide], in that order: 0.5 to 1 µM and “b (b: 100 fold > selectivity ≥ 50 fold)”.
Take `Cc1ncc2oc(-c3ccc(C(=O)NCc4cccc(Cl)c4Cl)cc3)nn12` [Example 87, N-(2,3-dichlorobenzyl)-4-(5-methylimidazo[5,1-b][1,3,4]oxadiazol-2-yl)benzamide]: the IC50 in assay [1] lay in the range of 1 to 2.2 µM. Moreover, the Abtot/Ab42 selectivity ranges entry in assay [2] is on record as “c (c: 50 fold > selectivity ≥ 10 fold)”.
The like results for `Cc1ncc2oc(-c3ccc(C(=O)NCc4csc5ccc(Cl)cc45)cc3)nn12` [Example 88, N-((5-chlorobenzo[b]thiophen-3-yl)methyl)-4-(5-methylimidazo[5,1-b][1,3,4]oxadiazol-2-yl)benzamide] were, in that order, 1 to 2.2 µM and “c (c: 50 fold > selectivity ≥ 10 fold)”.
On to `Cc1ncc2sc(C(=O)N(Cc3ccccc3)CC(C)C)nn12` [Example 89, 5-Methyl-imidazo[5,1-b][1,3,4]thiadiazole-2-carboxylic acid benzyl-isobutyl-amide], for which the IC50 in assay [1] lay in the range of 0.1 to 0.5 µM. For the same molecule, the Abtot/Ab42 selectivity ranges entry in assay [2] is on record as “d (d: 10 fold > selectivity)”.
As for `CCOc1ccccc1C(C)NC(=O)c1nn2c(C)ncc2s1` (stereo not shown) [Example 90, 5-Methyl-imidazo[5,1-b][1,3,4]thiadiazole-2-carboxylic acid [1-(2-ethoxy-phenyl)-ethyl]-amide], the 50% inhibitory concentration (IC50) in assay [1] lay in the range of 0.5 to 1 µM. Also, the Abtot/Ab42 selectivity ranges result in assay [2] is “d (d: 10 fold > selectivity)”.
The like results for `Cc1ncc2sc(C(=O)NC(c3ccc(Cl)cc3)C3CC3)nn12` (stereo not shown) [Example 91, 5-Methyl-imidazo[5,1-b][1,3,4]thiadiazole-2-carboxylic acid [(4-chloro-phenyl)-cyclopropyl-methyl]-amide] were, in that order, 1 to 2.2 µM and “d (d: 10 fold > selectivity)”.
On to `Cc1ncc2sc(C(=O)NCc3ccccc3OCC(F)(F)F)nn12` [Example 92, 5-Methyl-imidazo[5,1-b][1,3,4]thiadiazole-2-carboxylic acid 2-(2,2,2-trifluoro-ethoxy)-benzylamide], for which the IC50 in assay [1] is under 0.1 µM. Further, the Abtot/Ab42 selectivity ranges result in assay [2] is listed as “d (d: 10 fold > selectivity)”.
As for `Cc1ncc2sc(C(=O)N3CCCC3c3ccccc3)nn12` (stereo not shown) [Example 93, (5-Methyl-imidazo[5,1-b][1,3,4]thiadiazol-2-yl)-(2-phenyl-pyrrolidin-1-yl)-methanone], in assay [1], the IC50 lay within 0.1 to 0.5 µM. Further, in assay [2], the Abtot/Ab42 selectivity ranges result is recorded as “d (d: 10 fold > selectivity)”.
Take `Cc1ncc2sc(C(=O)NCCc3c[nH]c4ccccc34)nn12` [Example 94, 5-Methyl-imidazo[5,1-b][1,3,4]thiadiazole-2-carboxylic acid [2-(1H-indol-3-yl)-ethyl]-amide]: the IC50 in assay [1] was in the range of 0.5 to 1 µM. The Abtot/Ab42 selectivity ranges result in assay [2] is “d (d: 10 fold > selectivity)”.
The like results for `Cc1ncc2sc(C(=O)N(C)Cc3cccc(Cl)c3)nn12` [Example 95, 5-Methyl-imidazo[5,1-b][1,3,4]thiadiazole-2-carboxylic acid (3-chloro-benzyl)-methyl-amide] were, in that order, 0.5 to 1 µM and “d (d: 10 fold > selectivity)”.
`CCOc1ccccc1CNC(=O)c1nn2c(C)ncc2s1` [Example 96, 5-Methyl-imidazo[5,1-b][1,3,4]thiadiazole-2-carboxylic acid 2-ethoxy-benzylamide]: the IC50 in assay [1] lay in the range of 0.5 to 1 µM. In addition, in assay [2], the Abtot/Ab42 selectivity ranges result is “d (d: 10 fold > selectivity)”.
Take `Cc1ncc2sc(C(=O)N(C)CCc3ccccc3)nn12` [Example 97, 5-Methyl-imidazo[5,1-b][1,3,4]thiadiazole-2-carboxylic acid methyl-phenethyl-amide]: the half-inhibitory concentration (IC50) in assay [1] was in the range of 0.5 to 1 µM. In addition, in assay [2], the Abtot/Ab42 selectivity ranges result is “d (d: 10 fold > selectivity)”.
On to `Cc1ncc2sc(C(=O)N(C)Cc3ccccc3)nn12` [Example 98, 5-Methyl-imidazo[5,1-b][1,3,4]thiadiazole-2-carboxylic acid benzyl-methyl-amide], for which the half-inhibitory concentration (IC50) in assay [1] is 1 to 2.2 µM. Also, in assay [2], the Abtot/Ab42 selectivity ranges entry is recorded as “d (d: 10 fold > selectivity)”.
As to `CCN(Cc1ccccc1)C(=O)c1nn2c(C)ncc2s1` [Example 99, 5-Methyl-imidazo[5,1-b][1,3,4]thiadiazole-2-carboxylic acid benzyl-ethyl-amide], the IC50 in assay [1] was in the range of 1 to 2.2 µM. Besides, the Abtot/Ab42 selectivity ranges result in assay [2] is reported as “d (d: 10 fold > selectivity)”.
For `Cc1ncc2sc(-c3ccc(NC(=O)Cc4cccc(C(F)(F)F)c4)cc3)nn12` [Example 100, N-[4-(5-Methyl-imidazo[5,1-b][1,3,4]thiadiazol-2-yl)-phenyl]-2-(3-trifluoromethyl-phenyl)-acetamide], in that order: 0.1 to 0.5 µM and “b (b: 100 fold > selectivity ≥ 50 fold)”.
For `Cc1ncc2sc(C(=O)N(C)Cc3cccc(C(F)(F)F)c3)nn12` [Example 101, 5-Methyl-imidazo[5,1-b][1,3,4]thiadiazole-2-carboxylic acid methyl-(3-trifluoromethyl-benzyl)-amide], in that order: 0.5 to 1 µM and “d (d: 10 fold > selectivity)”.
With `Cc1ncc2sc(-c3nnc(NCc4ccc(Cl)c(Cl)c4)o3)nn12` [Example 102, (3,4-Dichloro-benzyl)-[5-(5-methyl-imidazo[5,1-b][1,3,4]thiadiazol-2-yl)-[1,3,4]oxadiazol-2-yl]-amine], the IC50 in assay [1] fell in the range of 0.1 to 0.5 µM. In addition, in assay [2], the Abtot/Ab42 selectivity ranges entry is “d (d: 10 fold > selectivity)”.
With `Cc1ncc2sc(-c3nnc(NCc4ccc(F)cc4)o3)nn12` [Example 103, (4-Fluoro-benzyl)-[5-(5-methyl-imidazo[5,1-b][1,3,4]thiadiazol-2-yl)-[1,3,4]oxadiazol-2-yl]-amine], the IC50 in assay [1] lay in the range of 0.5 to 1 µM. For the same molecule, the Abtot/Ab42 selectivity ranges result in assay [2] is recorded as “d (d: 10 fold > selectivity)”.
For the molecule `Cc1ncc2sc(-c3nnc(NCc4ccccc4F)o3)nn12` [Example 104, (2-Fluoro-benzyl)-[5-(5-methyl-imidazo[5,1-b][1,3,4]thiadiazol-2-yl)-[1,3,4]oxadiazol-2-yl]-amine], the IC50 in assay [1] was 1 to 2.2 µM. In assay [2], the Abtot/Ab42 selectivity ranges entry was “d (d: 10 fold > selectivity)”.
The like results for `Cc1ncc2sc(C(=O)NCc3cccc4ccccc34)nn12` [Example 105, 5-methyl-N-(naphthalen-1-ylmethyl)imidazo[5,1-b][1,3,4]thiadiazole-2-carboxamide] were, in that order, 0.5 to 1 µM and “d (d: 10 fold > selectivity)”.
The like results for `Cc1ncc2sc(C(=O)NCc3ccc(Oc4ccc(F)cc4)cc3)nn12` [Example 106, 5-Methyl-imidazo[5,1-b][1,3,4]thiadiazole-2-carboxylic acid 4-(4-fluoro-phenoxy)-benzylamide] were, in that order, 0.1 to 0.5 µM and “b (b: 100 fold > selectivity ≥ 50 fold)”.
For the molecule `Cc1ncc2sc(C(=O)NCc3ccc(Oc4ccccc4)cc3)nn12` [Example 107, 5-Methyl-imidazo[5,1-b][1,3,4]thiadiazole-2-carboxylic acid 4-phenoxy-benzylamide], in assay [1], the IC50 was 0.1 to 0.5 µM. In addition, the Abtot/Ab42 selectivity ranges entry in assay [2] is recorded as “c (c: 50 fold > selectivity ≥ 10 fold)”.
